Consider 20 compounds from patent US11759455B2, “Substituted 1H-imidazo[4,5-b]pyridin-2(3H)-ones and their use as GLUN2B receptor modulators” (JANSSEN PHARMACEUTICA NV, priority 2016, dated 2023).

This assay concerns the target T1, human GluN1/GluN2B NMDA receptors (Homo sapiens, UniProt Q05586+Q13224).
T1 construct: expressed in transfected cells
The assay can be described thus: Cell-based calcium flux (FLIPR) assay on cloned human NR1/NR2B ion channels expressed in mammalian cells (standard and HTS buffer variants).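 Also: stable Tet-On inducible cell line, Ca2+ influx triggered by glutamate at about EC40 plus 10 µM glycine, fluorescent dye read-out over 5 min, normalized to control wells.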 Conditions: read-out: NR2B IC50 (μM) standard assay.

Setting [1] is: standard assay buffer (0.5 mM MgCl2 dye loading; 137 mM NaCl, 4 mM KCl assay buffer), human GluN1/GluN2B cells.
[2] abbreviates: standard assay buffer (0.5 mM MgCl2 in dye loading buffer; 137 mM NaCl, 4 mM KCl in assay buffer), human GluN1/GluN2B.

Molecules are shown by their SMILES. Read-outs that look alike come from different tables or passages of the source.

T1 sequence (Q13224 27-1484, other chains not shown): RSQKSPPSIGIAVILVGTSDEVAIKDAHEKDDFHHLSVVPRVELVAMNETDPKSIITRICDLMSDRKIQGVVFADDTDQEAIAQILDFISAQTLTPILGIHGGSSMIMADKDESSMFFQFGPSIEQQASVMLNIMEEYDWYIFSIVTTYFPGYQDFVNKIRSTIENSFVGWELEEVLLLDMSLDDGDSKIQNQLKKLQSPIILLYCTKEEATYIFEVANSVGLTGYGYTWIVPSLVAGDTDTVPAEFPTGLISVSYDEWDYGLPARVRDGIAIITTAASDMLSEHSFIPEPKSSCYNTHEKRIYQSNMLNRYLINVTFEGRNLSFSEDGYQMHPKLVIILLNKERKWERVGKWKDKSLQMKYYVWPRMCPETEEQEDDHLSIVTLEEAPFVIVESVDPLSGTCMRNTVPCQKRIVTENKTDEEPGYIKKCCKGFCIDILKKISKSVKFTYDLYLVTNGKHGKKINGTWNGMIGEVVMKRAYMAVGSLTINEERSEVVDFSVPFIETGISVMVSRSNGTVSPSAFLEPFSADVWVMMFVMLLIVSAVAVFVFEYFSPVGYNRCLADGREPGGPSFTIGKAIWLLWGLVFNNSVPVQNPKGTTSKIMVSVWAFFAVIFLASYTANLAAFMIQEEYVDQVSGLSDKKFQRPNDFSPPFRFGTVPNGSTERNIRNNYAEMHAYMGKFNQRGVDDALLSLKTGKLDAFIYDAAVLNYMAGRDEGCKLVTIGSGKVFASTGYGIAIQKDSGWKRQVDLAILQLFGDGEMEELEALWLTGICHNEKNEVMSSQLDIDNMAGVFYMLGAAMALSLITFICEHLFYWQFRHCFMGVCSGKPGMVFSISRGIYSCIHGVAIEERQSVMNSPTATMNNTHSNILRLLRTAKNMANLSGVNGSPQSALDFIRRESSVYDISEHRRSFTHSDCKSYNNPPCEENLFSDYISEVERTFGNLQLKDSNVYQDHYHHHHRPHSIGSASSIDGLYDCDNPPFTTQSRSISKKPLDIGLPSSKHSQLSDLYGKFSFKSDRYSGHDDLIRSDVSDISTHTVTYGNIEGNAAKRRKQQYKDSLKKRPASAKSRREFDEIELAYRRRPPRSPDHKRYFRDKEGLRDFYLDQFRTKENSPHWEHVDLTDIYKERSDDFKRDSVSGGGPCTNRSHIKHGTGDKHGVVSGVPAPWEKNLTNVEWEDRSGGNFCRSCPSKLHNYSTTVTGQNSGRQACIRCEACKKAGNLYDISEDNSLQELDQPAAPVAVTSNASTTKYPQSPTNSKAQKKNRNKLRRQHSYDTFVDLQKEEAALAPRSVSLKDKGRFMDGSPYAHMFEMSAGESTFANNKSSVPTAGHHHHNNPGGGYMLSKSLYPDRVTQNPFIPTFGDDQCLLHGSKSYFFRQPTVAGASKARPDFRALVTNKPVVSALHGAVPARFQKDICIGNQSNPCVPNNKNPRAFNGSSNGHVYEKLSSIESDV

In the case of `[2H]c1c(-c2ccc(C(F)(F)F)s2)cnc2c1n(CC(=O)N1CCC1)c(=O)n2C` [Example 120, 1-(2-(Azetidin-1-yl)-2-oxoethyl)-3-methyl-6-(5-(trifluoromethyl)thiophen-2-yl)-1,3-dihydro-2H-imidazo[4,5-b]pyridin-2-one-7-D], the IC50 under setting [1] came to 0.01 µM.

On to `COc1ccc(-c2cnc3[nH]c(=O)n(Cc4ccccc4C#N)c3c2)cc1C` [Example 608, 2-[[6-(4-Methoxy-3-methyl-phenyl)-2-oxo-3H-imidazo[4,5-b]pyridin-1-yl]methyl]benzonitrile], for which the IC50 under setting [2] came to 1.02 µM.

Turning to `COc1ccc(-c2cnc3[nH]c(=O)n(CC(=O)C(C)(C)C)c3c2)cc1C` [Example 603, 1-(3,3-Dimethyl-2-oxo-butyl)-6-(4-methoxy-3-methyl-phenyl)-3H-imidazo[4,5-b]pyridin-2-one], the concentration for half-maximal inhibition (IC50) under setting [2] turned out to be 1.29 µM.

Consider `Cc1c(-c2cnc3c(c2)n(CC(O)CCO)c(=O)n3C)cccc1C(F)(F)F` (racemic) [Example 399, (R/S)-1-(2,4-Dihydroxybutyl)-3-methyl-6-[2-methyl-3-(trifluoromethyl)phenyl]imidazo[4,5-b]pyridin-2-one], for which the 50% inhibitory concentration (IC50) under setting [2] worked out at 5.1 µM.

For `O=c1[nH]c2ncc(-c3cccc(C(F)(F)F)c3)cc2n1CC1CCO1` (single isomer, unassigned) [Example 223, (R*)-1-(Oxetan-2-ylmethyl)-6-[3-(trifluoromethyl)phenyl]-3H-imidazo[4,5-b]pyridin-2-one], the IC50 under setting [1] turned out to be 0.036 µM.

As to `O=c1[nH]c2ncc(-c3cccc(Cl)c3Cl)cc2n1CC1CCN1` (racemic) [Example 268, (R/S)-1-(Azetidin-2-ylmethyl)-6-(2,3-dichlorophenyl)-3H-imidazo[4,5-b]pyridin-2-one], the IC50 under setting [1] is 0.041 µM.

`O=c1[nH]c2ncc(-c3cccc(C(F)(F)F)c3F)cc2n1CC1CCN1` (racemic) [Example 264, (R/S)-1-(Azetidin-2-ylmethyl)-6-[2-fluoro-3-(trifluoromethyl)phenyl]-3H-imidazo[4,5-b]pyridin-2-one]: the concentration for half-maximal inhibition (IC50) under setting [1] stood at 0.044 µM.

As to `O=c1[nH]c2ncc(-c3cccc(C(F)(F)F)c3)cc2n1CC1CCCO1` (racemic) [Example 24, (R/S)-1-(Tetrahydrofuran-2-ylmethyl)-6-[3-(trifluoromethyl)phenyl]-3H-imidazo[4,5-b]pyridin-2-one], under setting [1], the half-inhibitory concentration (IC50) was found to be 0.127 µM.

Turning to `Cn1c(=O)n(CC2CCO2)c2cc(-c3cccc(C(F)F)c3)cnc21` (racemic) [Example 394, (R/S)-6-[3-(Difluoromethyl)phenyl]-3-methyl-1-(oxetan-2-ylmethyl)imidazo [4,5-b]pyridin-2-one], the IC50 under setting [2] worked out at 0.128 µM.

Take `O=c1[nH]c2ncc(-c3cccc(C(F)(F)F)c3)cc2n1CC(O)C1CC1` (racemic) [Example 31, (R/S)-1-(2-Cyclopropyl-2-hydroxy-ethyl)-6-[3-(trifluoromethyl)phenyl]-3H-imidazo[4,5-b]pyridin-2-one]: the half-inhibitory concentration (IC50) under setting [1] is 0.151 µM.

Take `Cn1c(=O)n(CC(=O)N2CC(F)C2)c2cc(-c3csc(C(F)(F)F)c3)cnc21` [Example 102, 1-[2-(3-Fluoroazetidin-1-yl)-2-oxo-ethyl]-3-methyl-6-[5-(trifluoromethyl)-3-thienyl]imidazo[4,5-b]pyridin-2-one]: under setting [1], the concentration for half-maximal inhibition (IC50) turned out to be 0.018 µM.

Regarding `[2H]C([2H])([2H])OCc1ccc(-c2cnc3c(c2)n(CC(=O)N2CC(F)C2)c(=O)n3C)s1` [Example 123, 1-[2-(3-Fluoroazetidin-1-yl)-2-oxo-ethyl]-3-methyl-6-[5-(trideuteriomethoxymethyl)-2-thienyl]imidazo[4,5-b]pyridin-2-one], the IC50 under setting [1] stood at 1.82 µM.

With `CCC(O)Cn1c(=O)[nH]c2ncc(-c3ccc(OC)cc3)cc21` (single isomer, unassigned) [Example 4, (S*)-1-(2-Hydroxybutyl)-6-(4-methoxyphenyl)-3H-imidazo[4,5-b]pyridin-2-one], the 50% inhibitory concentration (IC50) under setting [1] was 0.32 µM.

Consider `COCCC(O)Cn1c(=O)n(C)c2ncc(-c3ccc(F)c(C)c3)cc21` (racemic) [Example 393, (R/S)-6-(4-Fluoro-3-methyl-phenyl)-1-(2-hydroxy-4-methoxy-butyl)-3-methyl-imidazo[4,5-b]pyridin-2-one], for which, under setting [2], the IC50 came out at 0.486 µM.

With `Cc1cc(F)ccc1-c1cnc2c(c1)n(CC1CCO1)c(=O)n2C` (racemic) [Example 33, (R/S)-6-(4-Fluoro-2-methyl-phenyl)-3-methyl-1-(oxetan-2-ylmethyl)imidazo[4,5-b]pyridin-2-one], the IC50 under setting [1] was determined as 1.23 µM.

Regarding `Cn1c(=O)n(CC2CCO2)c2cc(-c3cccc(C(F)(F)F)c3)cnc21` (racemic) [Example 133, (R/S)-3-methyl-1-(oxetan-2-ylmethyl)-6-[3-(trifluoromethyl)phenyl]imidazo[4,5-b]pyridin-2-one], the IC50 under setting [1] was found to be 0.211 µM.

Turning to `O=c1[nH]c2ncc(-c3cccc(C(F)(F)F)c3)cc2n1CC1CCO1` (racemic) [Example 216, (R/S)-1-(Oxetan-2-ylmethyl)-6-[3-(trifluoromethyl)phenyl]-3H-imidazo[4,5-b]pyridin-2-one], the IC50 under setting [1] came out at 0.034 µM.

Regarding `COc1ccc(-c2cnc3[nH]c(=O)n(CC(C)C)c3c2)cc1` [Example 604, 1-Isobutyl-6-(4-methoxyphenyl)-3H-imidazo[4,5-b]pyridin-2-one], the concentration for half-maximal inhibition (IC50) under setting [2] worked out at 1.82 µM.

In the case of `O=c1[nH]c2ncc(-c3ccc(F)c(C(F)(F)F)c3)cc2n1CC1CCN1` (racemic) [Example 267, (R/S)-1-(Azetidin-2-ylmethyl)-6-[4-fluoro-3-(trifluoromethyl)phenyl]-3H-imidazo[4,5-b]pyridin-2-one], under setting [1], the IC50 was found to be 0.442 µM.

On to `CCC(O)Cn1c(=O)[nH]c2ncc(-c3ccc(F)c(C)c3)cc21` (racemic) [Example 334, (R/S)-6-(4-Fluoro-3-methyl-phenyl)-1-(2-hydroxybutyl)-3H-imidazo[4,5-b]pyridin-2-one], for which, under setting [2], the half-inhibitory concentration (IC50) amounted to 0.031 µM.

The IC50 is the concentration needed to halve the response being measured.
